Experimental data published in ChEMBL document CHEMBL2021800, “Aberrant cyclization affords a C-6 modified cyclic adenosine 5'-diphosphoribose analogue with biological activity in Jurkat T cells” (J Med Chem, 2012).
The source made the active and inactive calls. No cut-off for these calls is given here.

How the values were obtained:
Format in all cases: functional, cell-based
Jurkat [1] = assay: Inhibition of N1-cIDPR-induced Ca2+ release in human Jurkat T cells using fluo-3 dye by spectrofluorometry analysis
Jurkat [2] = assay: Induction of Ca2+ release in human Jurkat T cells at 10 to 30 uM using fluo-3 dye by spectrofluorometry analysis
Jurkat [3] = assay: Induction of Ca2+ release in human Jurkat T cells at 100 to 300 uM using fluo-3 dye by spectrofluorometry analysis
Jurkat [4] = assay: Inhibition of cADPR-induced Ca2+ release in human Jurkat T cells using fluo-3 dye by spectrofluorometry analysis

IC50 (Jurkat [1]): 3 µM
IC50 (Jurkat [4]): 30 µM
SMILES: O=P1(O)OC[C@H]2O[C@H]([C@H](O)[C@@H]2O)n2cnc3c(ncn3[C@@H]3O[C@H](COP(=O)(O)O1)[C@@H](O)[C@H]3O)c2=S
inhibition (Jurkat [1]): Dose-dependent effect
Activity (Jurkat [2]): inactive
Activity (Jurkat [3]): Active
inhibition (Jurkat [4]): Dose-dependent effect
